# Experimental data published in patent US20230137927A1, “INTERFERON TAU AS ANTIVIRAL THERAPY” (priority 2020, published 2023).
# pEC50, pIC50: −log10 of the molar value. Like-named read-outs stand apart in the source and are kept apart here.
# Tests used:
# [1] = test system: DENV type 2 Rluc-NGC strain; test: microbe, parasite or virus in culture; assay type: cell-based; details: Dengue virus, Vero
# YFV 17D = test: microbe, parasite or virus in culture; assay type: cell-based; details: Yellow fever virus
# [2] = test system: SARS CoV-2 (USA_WA1/2020); test: SARS-CoV-2 CPE assay in Vero E6 cells; assay type: cell-based; details: Severe acute respiratory syndrome coronavirus 2, Vero C1008, reference compounds in the same assay
# hCoV-229E = hCoV-229E CPE assay; assay type: cell-based; details: Human coronavirus 229E
# hCoV-OC43 = test: HCoV OC43 CPE assay in Huh7 cells; assay type: cell-based
# [3] = Cytotoxicity in parallel with OC43 CPE assay, without virus; details: human
# Huh7 cells = test: as above; details: Huh7 cells; no virus; reference compounds
# [4] = Betacoronavirus 1, OC43, Huh-7, read-out: Average Inhibition (%)
structure (smiles),measurement,setting,value
NC(=O)c1ncn([C@@H]2O[C@H](CO)[C@@H](O)[C@H]2O)n1 [Ribavirin],pEC50,[1],4.49
same,inhibition at 0.015 µM,[1],14.9%
same,inhibition at 0.046 µM,[1],14.9%
same,inhibition at 0.137 µM,[1],10.8%
same,inhibition at 0.412 µM,[1],13.5%
same,inhibition at 1.235 µM,[1],31.1%
same,inhibition at 3.704 µM,[1],20.3%
same,inhibition at 11.111 µM,[1],24.3%
same,inhibition at 33.333 µM,[1],60.8%
same,inhibition at 100 µM,[1],98.7%
same,inhibition at 300 µM,[1],100%
same,CC50,in vitro,> 699 µM
same,pEC50,"YFV 17D; read-out: EC50 for YFV, FIG. 4B as described in Examples 3 & 4",3.65
same,pEC50,"YFV 17D; read-out: EC50 for YFV, FIG. 4B legend",3.87
CCN(CCO)CCCC(C)Nc1ccnc2cc(Cl)ccc12 (stereo not drawn) [Hydroxychloroquine],pIC50,[2],5.72
CCN(CC)CCCC(C)Nc1ccnc2cc(Cl)ccc12 (stereo not drawn) [Chloroquine],pIC50,"hCoV-229E; MRCS cells, data not shown, read-out: IC50",5.66
CCC(CC)COC(=O)[C@H](C)N[P@](=O)(OC[C@H]1O[C@@](C#N)(c2ccc3c(N)ncnn23)[C@H](O)[C@@H]1O)Oc1ccccc1 [Remdesivir],pEC50,"hCoV-OC43; Betacoronavirus 1, OC43, Huh-7",7.38
same,inhibition at 0.000457 µM,hCoV-OC43; [4],-4.12%
same,inhibition at 0.001372 µM,hCoV-OC43; [4],-0.1%
same,inhibition at 0.004115 µM,hCoV-OC43; [4],1.54%
same,inhibition at 0.01235 µM,hCoV-OC43; [4],8.25%
same,inhibition at 0.03704 µM,hCoV-OC43; [4],30.4%
same,inhibition at 0.11111 µM,hCoV-OC43; [4],83.4%
same,inhibition at 0.33333 µM,hCoV-OC43; [4],79.5%
same,inhibition at 1 µM,hCoV-OC43; [4],80.3%
same,pIC50,[2],5.41
same,"viability at 7 days, 0.046 µM",[3],100%
same,"viability at 7 days, 0.137 µM",[3],102%
same,"viability at 7 days, 0.412 µM",[3],104%
same,"viability at 7 days, 1.235 µM",[3],102%
same,"viability at 7 days, 3.704 µM",[3],86.9%
same,"viability at 7 days, 11.11 µM",[3],56.8%
same,"viability at 7 days, 33.33 µM",[3],36.9%
same,"viability at 7 days, 100 µM",[3],21.8%
same,CC50,Huh7 cells,17.2 µM
same,pIC50,hCoV-229E; 72 h,7.64
